Measurements published in BindingDB's records for doi:10.1021/jm960128k (University of Illinois At Chicago, 1996).

Biological target: T1, Dimer of Gag-Pol polyprotein [489-587] (Human immunodeficiency virus 1, UniProt P12497)
T1 construct: 489-587
Assay: Protease Inhibition Assay
Conditions: pH 5.5; 30 °C
Method: The IC50 values for the compounds were determined using purified HIV-1 Protease. Inhibition of the cleavage of the peptide H-Val-Ser-Gln-Asn-(L-beta-napthylalanine)-Pro-Ile-Val-OH was assessed at 30 °C, pH = 5.5 with [Enzyme] = 30 pM for 1 h, using HPLC with UV detection for quantification of the products. For the IC50 data a substrate concentration of 0.4 mg/mL was used, and data was fit to a four parameter sigmoidal equation.

## CC(C)(C)NC(=O)[C@@H]1C[C@@H]2CCCC[C@@H]2CN1C[C@@H](O)[C@H](Cc1ccccc1)NC(=O)O[C@@H]1CO[C@@H]2CCO[C@@H]21 [(3R,3aS,6aR)-hexahydrofuro[3,2-b]furan-3-yl N-[(2S,3R)-4-[(3S,4aS,8aS)-3-(tert-butylcarbamoyl)-decahydroisoquinolin-2-yl]-3-hydroxy-1-phenylbutan-2-yl]carbamate]
  IC50: > 3 µM
